In PMC7256847 (Polish Journal of Microbiology, 2019):
Read-outs that look alike come from different tables or passages of the source.

Key:
alanine racemase (SiAlr) [1] = target: T1, alanine racemase (SiAlr) (Streptococcus iniae, UniProt A0A3L8GG59); assay: enzyme inhibition assay with purified recombinant SiAlr; format: biochemical
T1 sequence (A0A3L8GG59 1-368): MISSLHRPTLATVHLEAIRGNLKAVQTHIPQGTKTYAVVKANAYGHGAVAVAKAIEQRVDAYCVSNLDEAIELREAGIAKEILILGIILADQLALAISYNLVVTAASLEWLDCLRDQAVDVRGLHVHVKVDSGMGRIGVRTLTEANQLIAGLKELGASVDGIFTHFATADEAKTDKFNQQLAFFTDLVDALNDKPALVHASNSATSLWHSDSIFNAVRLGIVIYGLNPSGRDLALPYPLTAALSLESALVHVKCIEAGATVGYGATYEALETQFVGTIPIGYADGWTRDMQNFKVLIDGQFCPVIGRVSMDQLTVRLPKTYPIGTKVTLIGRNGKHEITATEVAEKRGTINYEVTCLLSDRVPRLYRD

alanine racemase (SiAlr) [2] = target: T1, alanine racemase (SiAlr); assay: as above; format: biochemical; remark: listed apart in the source
[3] = substrate: C[C@@H](N)C(=O)O; assay: HPLC racemization kinetics; format: biochemical, Streptococcus iniae; conditions: pyridoxal […]'-phosphate (PLP)
[4] = substrate: C[C@H](N)C(=O)O; assay: HPLC racemization kinetics; format: biochemical, Streptococcus iniae; conditions: pyridoxal […]'-phosphate (PLP)

Molecule: Oc1ccc(O)cc1 [hydroquinone]
- IC50 (alanine racemase (SiAlr) [1]): 11.4 µM

Molecule: O=C(O)Cc1cc(O)ccc1O [homogentisic acid]
- IC50 (alanine racemase (SiAlr) [1]): 12.3 µM

Molecule: N[C@@H]1CON=C1O [D-cycloserine]
- IC50 (alanine racemase (SiAlr) [2]): 3.69 µM

B1: alanine racemase (SiAlr) (Streptococcus iniae) (protein)
chain: MISSLHRPTLATVHLEAIRGNLKAVQTHIPQGTKTYAVVKANAYGHGAVAVAKAIEQRVDAYCVSNLDEAIELREAGIAKEILILGIILADQLALAISYNLVVTAASLEWLDCLRDQAVDVRGLHVHVKVDSGMGRIGVRTLTEANQLIAGLKELGASVDGIFTHFATADEAKTDKFNQQLAFFTDLVDALNDKPALVHASNSATSLWHSDSIFNAVRLGIVIYGLNPSGRDLALPYPLTAALSLESALVHVKCIEAGATVGYGATYEALETQFVGTIPIGYADGWTRDMQNFKVLIDGQFCPVIGRVSMDQLTVRLPKTYPIGTKVTLIGRNGKHEITATEVAEKRGTINYEVTCLLSDRVPRLYRD
- Km [3]: 14.36 mM
- Km [4]: 33.11 mM
